The values that follow are results of earlier work, collected in patent US20040037903A1, “Phytonutrient formula for the relief of chronic pain resulting from inflammation” (priority 2003, published 2004).

In one series the test system is PGE2. To be noted: in vivo in rats, curcumin added to the diet.
The test system of series [1] is 5-HETE. Particulars: in vivo in rats, curcumin added to the diet.
The test system of a further series is IL-1B. Particulars: human cell lines.
The test system of a further series is IL-8. To be noted: human cell lines.
The test system of the next series is TNF-α. To be noted: human cell lines.
The conditions of series [2]: animal study, similar active dose.
The test system of the next series is IL-6. To be noted: incubation of mouse macrophages with resveratrol.
For series [3], the system named is 5-HETE. Particulars: rat polymorphonuclear leukocytes.

For `COc1cc(/C=C/C(=O)CC(=O)/C=C/c2ccc(O)c(OC)c2)ccc1O` [curcumin, diferuloyl methane], the “reduction of PGE2” value with PGE2 is given as 38%. Further, in the series on 5-HETE [1], the “reduction of 5-HETE” value is reported as 80%. The “inhibition of cytokine IL-1B” value in the series on IL-1B is on record as “at least 50%”. Besides, in the series with IL-8, the “inhibition of cytokine IL-8” value is reported as “at least 50%”. Also, the “inhibition of cytokine TNF-α” value with TNF-α was “at least 50%”.
`CCCCC1C(=O)N(c2ccccc2)N(c2ccccc2)C1=O` [phenylbutazone]: the ulcerogen index in series [2] was 1.7.
With `Oc1ccc(/C=C/c2cc(O)cc(O)c2)cc1` [resveratrol, 3,5,4′-trihydroxy-trans-stilbene], the “inhibition of the production of IL-6” value in the series with IL-6 is listed as 34%. Further, in the series on 5-HETE [3], the “inhibition of 5-HETE” value is given as “greater than 70%”.
